Test results: patent publication US20030228263A1, “Propagermanium for treating myeloma bone disease and other bone disorders” (SurroMed, Inc., priority 2002, published 2003)

B1: MIP-1α: CC chemokine macrophage inflammatory protein-1α, used as osteoclast stimulus (protein, UniProt P10147 24-92, looked up)
C-C motif chemokine 3: SLAADTPTACCFSYTSRQIPQNFIADYFETSSQCSKPGVIFLTKRSRQVCADPSEEWVQKYVSDLELSA

What was measured:
[1] = test system: mouse bone marrow cells stimulated with MIP-1α; assay: Formation of mouse osteoclasts (TRAP staining) in bone marrow cultures; format: cell-based; conditions: 1 μg/ml propagermanium, two different concentrations of MIP-1α, with 10^−11 M vitamin D, FIG. 2
Description: Bone marrow cells (10^6 cells/culture) from C57B1 mice were isolated and cultured for osteoclast-like multinucleated cell formation in the presence or absence of 1, 10, or 100 ng/ml MIP-1α, 10^−11 M 1,25-(OH)2D3 (vitamin D), and varying concentrations of anti-human MIP-1α antibody (20 or 100 ng/ml), anti-CCR1 receptor antibody (20 or 100 ng/ml), anti-CCR5 receptor antibody (20 or 100 ng/ml), and 1 μg/ml propagermanium. Twelve different culture compositions were each prepared in four wells of a 48-well plate. After approximately six or seven days, the cultures were stained for the enzyme tartrate-resistant acid phosphatase (TRAP), an enzyme secreted into the circulation by osteoclasts during bone resorption, using an acid phosphatase staining kit (Sigma). TRAP-positive multinucleated cells containing three or more nuclei (assumed to be osteoclasts) were counted with an inverted microscope. The readout can be either the total amount of TRAP (TRAP activity) or the number of osteoclasts.

[2] = test system: human bone marrow cells stimulated with MIP-1α; assay: Formation of human osteoclasts (23c6-positive multinucleated cells) in long-term marrow cultures; format: cell-based; conditions: for increase in the number of osteoclasts formed over untreated marrow: 200 pg/ml MIP-1α or 10^−8 M 1,25-(OH)2D3 alone, 23c6-positive cells, about three weeks, FIG. 3
Description: Human long-term marrow cultures were performed as described in D. E. Hughes et al., “Estrogen promotes apoptosis of murine osteoclasts mediated by TGF-β,” Nature Medicine 2: 1132-1136, 1996, which is incorporated herein by reference. Briefly, human bone marrow nonadherent mononuclear cells from normal volunteers were cultured at 10^6 cells/ml in α-minimum essential medium and 20% horse serum with or without 10^−8 M 1,25-(OH)2D3 (vitamin D), 200 pg/ml MIP-1α, 20 ng/ml anti-human MIP-1α antibody, and varying concentrations of propagermanium. Five wells of each of ten different culture conditions were prepared in a 96-well plate. Each well contained 10^5 cells and the desired combination of reagents. Half of the culture medium was changed weekly. After approximately three weeks, the cultures were harvested and stained with the 23c6 monoclonal antibody, which identifies the osteoclast vitronectin receptor, and the 23c6-positive multinucleated cells counted. The 23c6 assay is more specific than the TRAP assay (used in Example 1 for mouse osteoclasts) for human osteoclasts.
Results are shown in FIG. 3, a plot of fold increase in osteoclasts over the number of osteoclasts formed in untreated marrow for each set of wells. Well conditions are indicated below the bars. Results are reported as the mean±S.E. for five replicate samples and were compared by Student's t test.

monocytes = conditions: cited from earlier work
macrophages = conditions: mouse, in vivo; cited from earlier work

Molecule | reduction of the number of osteoclasts formed [1] | number of osteoclasts formed in response to MIP-1α stimulation ([2]; 200 pg/ml MIP-1α, varying concentrations of propagermanium) | effect on osteoclast formation in response to vitamin D stimulation ([2]; 10^−8 M 1,25-(OH)2D3, varying concentrations of propagermanium) | inhibition of the effect of MIP-1α on osteoclast formation ([2]; highest dose of propagermanium, compared with 20 ng/ml anti-human MIP-1α antibody) | chemotactic response of monocytes to the CC chemokine MCP-1 (monocytes) | direct interaction with the chemokine receptor CCR2 (monocytes) | recruitment of macrophages into the liver (macrophages) | increase in the number of osteoclasts formed over untreated marrow [2]
3-oxygermylpropionic acid polymer [Propagermanium] | greater than a factor of four | dose-dependent reduction | no effect | comparable to that of the anti-human MIP-1α antibody | inhibit | did not appear to interact directly | suppress | –
C=C1/C(=C\C=C2/CCC[C@]3(C)[C@@H]([C@H](C)CCCC(C)(C)O)CC[C@@H]23)C[C@@H](O)C[C@@H]1O [vitamin D, 1,25-(OH)2D3] | – | – | – | – | – | – | – | greater than two-fold increase
B1 | – | – | – | – | – | – | – | greater than two-fold increase
